The target of assay [1] is T1, 5-HT3 receptors (Oryctolagus cuniculus, UniProt A0A5F9C9J3).
T1 construct: isolated right atrium of the rabbit heart; from tissue; host or cells: rabbit isolated right atrium (sympathetic nerve terminals)
T1 sequence (A0A5F9C9J3 1-494): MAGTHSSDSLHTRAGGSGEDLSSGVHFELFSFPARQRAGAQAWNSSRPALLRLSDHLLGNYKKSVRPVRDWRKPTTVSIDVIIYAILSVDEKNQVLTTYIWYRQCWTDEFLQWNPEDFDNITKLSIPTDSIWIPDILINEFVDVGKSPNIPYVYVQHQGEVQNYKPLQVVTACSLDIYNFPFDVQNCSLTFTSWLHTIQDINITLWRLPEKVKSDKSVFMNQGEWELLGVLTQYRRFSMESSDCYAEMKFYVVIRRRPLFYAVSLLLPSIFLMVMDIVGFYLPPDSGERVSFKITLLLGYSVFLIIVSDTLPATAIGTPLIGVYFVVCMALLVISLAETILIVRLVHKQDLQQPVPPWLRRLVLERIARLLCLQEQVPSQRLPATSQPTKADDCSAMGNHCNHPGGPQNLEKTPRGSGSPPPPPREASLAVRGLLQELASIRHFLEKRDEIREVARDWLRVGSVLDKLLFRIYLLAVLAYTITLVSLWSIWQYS
In words: 5-HT3 antagonist activity in the isolated right atrium of the rabbit heart. The assay is classed as cell-based. The following applies: antagonism of 5-HT evoked increase in spontaneous rate of beating, read-out: apparent pKB (converted). How it is done: The compounds of the invention are also tested for 5-HT3 antagonist activity in the isolated right atrium of the rabbit heart based upon the method of Fozard J. R., Naunyn-Schmiedeberg's Arch. Pharmacol., 1984, 326, 36-44. This procedure relies upon the ability of 5-HT to stimulate 5-HT3 receptors present on symphetic nerve terminals in the heart, causing release of noradrenaline which evokes an increase in the spontaneous rate of beating. The antagonist potency is expressed in a similar manner to that of the preceding test method i.e. as an apparent pKB.

Assay [2] addresses T2, 5-HT3 receptors (Rattus norvegicus, UniProt P35563).
T2 construct: isolated vagus nerve of the rat; from tissue; host or cells: rat isolated (cervical) vagus nerve
T2 sequence (P35563 24-483): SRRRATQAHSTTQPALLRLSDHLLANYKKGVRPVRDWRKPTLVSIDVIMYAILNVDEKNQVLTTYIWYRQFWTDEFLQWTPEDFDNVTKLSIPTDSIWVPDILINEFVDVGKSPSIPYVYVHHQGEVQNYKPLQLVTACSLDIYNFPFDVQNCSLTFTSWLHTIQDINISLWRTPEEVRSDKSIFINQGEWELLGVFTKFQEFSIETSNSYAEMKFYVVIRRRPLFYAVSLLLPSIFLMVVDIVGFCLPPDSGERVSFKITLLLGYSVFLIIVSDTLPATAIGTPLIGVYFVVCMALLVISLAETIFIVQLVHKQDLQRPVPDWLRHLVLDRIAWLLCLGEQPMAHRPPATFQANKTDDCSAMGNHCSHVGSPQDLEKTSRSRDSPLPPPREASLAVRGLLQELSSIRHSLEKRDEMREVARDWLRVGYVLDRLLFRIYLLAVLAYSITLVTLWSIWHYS
In words: 5-HT3 receptor antagonism in the isolated vagus nerve of the rat (5-HT induced depolarization). The assay is classed as cell-based. The note with it: isolated rat cervical vagus nerve; antagonism of 5-HT induced depolarization; estimated from 5-HT concentration ratios; read-out: apparent pKB (converted). As to the method:
The compounds of the invention are tested for 5-HT3 receptor antagonism in the isolated vagus nerve of the rat by a method based upon that of Ireland S. J. and Tyers M. B., Brit. J. Pharmacol., 1987, 90, 229-238. The procedure relies upon the ability of 5-HT to induce depolarization of neurones in the cervical vagus nerve by a direct action on 5-HT3 receptors. A concentration-response curve to 5-HT induced depolarization is obtained and the antagonists are added to the bath containing the isolated nerve before repeating the 5-HT concentration-response curve. Antagonist potency is estimated for the 5-HT concentration ratios and expressed as an apparent pKB value (where KB is the antagonist dissociation constant).

The values that follow come from US5204470A, “Azabicyclic derivatives” (John Wyeth & Brother, Limited, priority 1990, dated 1993).

For `CN1C2C=C(Cc3ccc4ccccc4n3)CC1CC2` (centres unmarked) [Example 2, 3-(2-Quinolinylmethyl)-8-methyl-8-azabicyclo[3.2.1]oct-2-ene], the Kb was 2.51 nM at 5-HT3 receptors [1] and 63.1 nM on 5-HT3 receptors [2].
